Columns and labels:
human RORγt [1] = target: T1, human RORγt (Homo sapiens, UniProt P51449); test: IL-17 secretion from EL4 murine lymphoma overexpressing human RORγt; format: cell-based; parameters: V5-His (named only through the vector pcDNA3.1D/V5-His-TOPO); expressed in transfected cells; conditions: IL-17 secretion inhibition in human RORγt-transfected EL4 Tcells, PMA/ionomycin stimulation
T1 sequence (P51449 1-497 isoform P51449-2): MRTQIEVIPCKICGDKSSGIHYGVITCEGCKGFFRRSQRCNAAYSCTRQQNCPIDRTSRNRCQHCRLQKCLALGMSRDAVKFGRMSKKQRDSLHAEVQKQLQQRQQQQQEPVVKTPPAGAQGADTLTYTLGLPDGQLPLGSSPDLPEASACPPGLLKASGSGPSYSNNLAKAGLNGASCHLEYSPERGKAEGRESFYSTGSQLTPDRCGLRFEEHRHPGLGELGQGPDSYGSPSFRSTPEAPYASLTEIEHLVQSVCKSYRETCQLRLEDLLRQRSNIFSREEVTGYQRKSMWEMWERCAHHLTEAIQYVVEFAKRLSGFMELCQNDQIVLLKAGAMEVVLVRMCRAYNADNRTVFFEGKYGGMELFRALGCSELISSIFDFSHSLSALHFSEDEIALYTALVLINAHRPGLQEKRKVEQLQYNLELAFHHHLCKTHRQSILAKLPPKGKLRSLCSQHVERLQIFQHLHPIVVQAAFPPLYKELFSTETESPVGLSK
Protocol: Murine EL-4 lymphoma cell line overexpressing human RORγt was used in this functional assay to assess compound ability to inhibit IL-17 cytokine secretion.
EL-4 cells are maintained in a standard culture medium RPMI supplemented with 10% fetal calf serum, 1% sodium pyruvate, 1% essential amino acids and 1% antibiotics at 37° C. in a humidified atmosphere of 5% CO2 and 95% air. Culture medium was changed every 2 days. EL4 cells were transfected with a plasmid encoding hRORγt (sequence identical to published sequence NM 001001523). […] Briefly, 1 μg of DNA/1 million cells was served to transfect EL-4 cells. Cell/DNA suspension was transferred into certified cuvette and the electroporation of RORγt plasmid was carried out using appropriate Nucleofector® program.
Cells were seeded in 96 well plates at a density of 150000 cells/well then treated with compounds of this invention at indicated concentrations and incubated for 24 hours at 37° C. in a humidified atmosphere of 5% CO2 and 95% air. EL-4 cells were pretreated with test compounds (RORγ modulators) and stimulated with PMA (10 ng/mL) and ionomycin (1 μM final concentration) in the presence of test compound concentrations for additional 24 h at 37° C. in a humidified atmosphere of 5% CO2 and 95% air. Subsequently, supernatants were collected (after centrifugation at 300 g for 10 minutes) to determine the concentrations of IL-17 by HTRF (CisBio, France) or ELISA (R&D Systems Europe) according to the manufacturer's protocols.

[2] = target: T2, RORγt ligand-binding domain (RORγt-LBD) (Homo sapiens, UniProt P51449); test: Time-resolved FRET (TR-FRET) RORγt coactivator assay (RIP140 peptide displacement); format: biochemical; conditions: ligand-dependent coactivator-RORγt binding
T2 construct: 20 nM recombinantly expressed RORγ-LBD fused to GST
T2 sequence (P51449 269-508 limits assumed): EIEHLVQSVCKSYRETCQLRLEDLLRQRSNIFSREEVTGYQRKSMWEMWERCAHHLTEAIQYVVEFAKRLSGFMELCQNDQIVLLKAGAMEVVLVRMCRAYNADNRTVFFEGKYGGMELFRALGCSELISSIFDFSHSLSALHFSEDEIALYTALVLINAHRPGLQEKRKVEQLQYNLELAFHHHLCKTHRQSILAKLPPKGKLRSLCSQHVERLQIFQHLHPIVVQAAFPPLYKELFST
Method in brief: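 GST-tagged RORγt-LBD (20 nM) with 30 nM biotinylated RIP140 peptide, 1 nM streptavidin-terbium and 20 nM d2-anti-GST in CHAPS buffer with DTT, EDTA, BSA; 1% DMSO. Compounds 0.3 nM–30 μM, 2 h dark, room temperature. Coactivator displacement lowers TR-FRET signal; IC50 (μM) and Emax (%) derived.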

human RORγt [3] = target: T1, human RORγt; test: RORE Luciferase/RORγt transactivation assay (IL-17 promoter luciferase reporter in COS-7 cells); format: cell-based; parameters: V5-His (named only through the vector pcDNA3.1D/V5-His-TOPO); expressed in transfected cells; host or cells: COS-7 (monkey kidney); conditions: RORγt activity inhibition, luciferase activity in transfected COS-7 cells, 20 h
Method in brief: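 COS-7 cells co-transfected with human RORγt and luciferase reporter driven by 4.3 kb IL-17 promoter with CNS enhancer, seeded in serum-free, phenol red-free DMEM. Compounds added at 0.3% DMSO final; luciferase read by Steady-Glo luminescence. IC50 (μM) and Emax (%) reported.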

Row | Compound | IC50 (human RORγt [1]) [nM] | IC50 [2] [nM] | IC50 (human RORγt [3]) [nM]
1 | COc1ccc(C(NC(=O)Cc2ccc(N3CCS(=O)(=O)CC3)c(C)c2)c2ccc(C)o2)c(N2CCC(C)CC2)c1 (stereo not drawn) [Cpd. 13, 2-[4-(1,1-dioxo-1-thiomorpholin-4-yl)-3-methylphenyl]-N-{[4-methoxy-2-(4-methylpiperidin-1-yl)phenyl](5-methylfuran-2-yl)methyl}acetamide] | 100 to 1000 | 100 to 1000 | 100 to 1000
2 | O=C(Cc1ccc(N2CCS(=O)(=O)CC2)cc1)NC(c1ccccc1)c1ccccc1N1CCCCC1 (stereo not drawn) [Cpd. 1, 2-[4-(1,1-dioxo-1-thiomorpholin-4-yl)phenyl]-N-{phenyl[2-(piperidin-1-yl)phenyl]methyl}acetamide] | 100 to 1000 | < 1000 | 100 to 1000
3 | COc1ccc(C(NC(=O)Cc2ccc(N3CCS(=O)(=O)CC3)c(C)c2)c2ccc(C)o2)c(N(C)C)c1 (stereo not drawn) [Cpd. 15, N-{[2-(dimethylamino)-4-methoxyphenyl](5-methylfuran-2-yl)methyl}-2-[4-(1,1-dioxo-1-thiomorpholin-4-yl)-3-methylphenyl]acetamide] | < 1000 | < 1000 | 100 to 1000
4 | Cc1ccc(C(NC(=O)Cc2ccc(N3CCS(=O)(=O)CC3)c(C)c2)c2ccccc2)c(N2CC3CC3C2)c1 (stereo not drawn) [Cpd. 23, N-[(2-{3-azabicyclo[3.1.0]hexan-3-yl}-4-methylphenyl)(phenyl)methyl]-2-[4-(1,1-dioxo-1-thiomorpholin-4-yl)-3-methylphenyl]acetamide] | 100 to 1000 | 100 to 1000 | < 100
5 | Cc1ccc(C(NC(=O)Cc2ccc(N3CCS(=O)(=O)CC3)c(C)c2)c2ccc(C)o2)c(Br)c1 (stereo not drawn) [Cpd. 11, N-[(2-bromo-4-methylphenyl)(5-methylfuran-2-yl)methyl]-2-[4-(1,1-dioxo-1-thiomorpholin-4-yl)-3-methylphenyl]acetamide] | 100 to 1000 | < 1000 | 100 to 1000
6 | Cc1ccc(C(NC(=O)Cc2cnc(N3CCS(=O)(=O)CC3)nc2)c2ccc(C)o2)c(N2CCCCC2)c1 (stereo not drawn) [Cpd. 20, 2-[2-(1,1-dioxo-1-thiomorpholin-4-yl)pyrimidin-5-yl]-N-{[4-methyl-2-(piperidin-1-yl)phenyl](5-methylfuran-2-yl)methyl}acetamide] | < 1000 | < 1000 | < 100
7 | Cc1ccc(C(NC(=O)Cc2ccc(N3CCS(=O)(=O)CC3)cc2)c2ccccc2)c(Br)c1 (stereo not drawn) [Cpd. 9, N-[(2-bromo-4-methylphenyl)(phenyl)methyl]-2-[4-(1,1-dioxo-1-thiomorpholin-4-yl)phenyl]acetamide] | 100 to 1000 | < 1000 | 100 to 1000
8 | Cc1ccc(C(NC(=O)C2(c3ccc(N4CCS(=O)(=O)CC4)cc3)CC2)c2ccc(C)o2)c(C)c1 (stereo not drawn) [Cpd. 31, N-[(2,4-dimethylphenyl)(5-methylfuran-2-yl)methyl]-1-[4-(1,1-dioxo-1-thiomorpholin-4-yl)phenyl]cyclopropane-1-carboxamide] | < 1000 | < 1000 | < 100
9 | Cc1ccc(C(NC(=O)Cc2ccc(N3CCS(=O)(=O)CC3)cc2)c2ccc(C)o2)c(N2CCCCC2)c1 (stereo not drawn) [Cpd. 6, 2-[4-(1,1-dioxo-1-thiomorpholin-4-yl)phenyl]-N-{[4-methyl-2-(piperidin-1-yl)phenyl](5-methylfuran-2-yl)methyl}acetamide] | < 1000 | < 1000 | < 100
10 | Cc1ccc(C(NC(=O)Cc2ccc(N3CCOCC3)nc2)c2ccc(C)o2)c(N2CCCCC2)c1 (stereo not drawn) [Cpd. 25, N-{[4-methyl-2-(piperidin-1-yl)phenyl](5-methylfuran-2-yl)methyl}-2-[6-(morpholin-4-yl)pyridin-3-yl]acetamide] | 100 to 1000 | < 1000 | 100 to 1000
11 | Cc1ccc(C(NC(=O)Cc2ccc(N3CCS(=O)(=O)CC3)cc2C)c2ccc(C)o2)c(C)c1 (stereo not drawn) [Cpd. 19, N-[(2,4-dimethylphenyl)(5-methylfuran-2-yl)methyl]-2-[4-(1,1-dioxo-1-thiomorpholin-4-yl)-2-methylphenyl]acetamide] | < 1000 | < 1000 | < 100

More lines, now with the values ahead:

Row | IC50 (human RORγt [1]) [nM] | IC50 [2] [nM] | IC50 (human RORγt [3]) [nM] | Compound
12 | < 1000 | 100 to 1000 | < 100 | Cc1ccc(C(NC(=O)C2(c3ccc(N4CCS(=O)(=O)CC4)cc3)CC2)c2ccc(C)o2)c(N2CCCCC2)c1 (stereo not drawn) [Cpd. 32, 1-[4-(1,1-dioxo-1-thiomorpholin-4-yl)phenyl]-N-{[4-methyl-2-(piperidin-1-yl)phenyl](5-methylfuran-2-yl)methyl}cyclopropane-1-carboxamide]
13 | < 1000 | < 1000 | < 100 | Cc1ccc(C(NC(=O)Cc2cnc(N3CCS(=O)(=O)CC3)nc2C)c2ccc(C)o2)c(N2CCCCC2)c1 (stereo not drawn) [Cpd. 38, 2-[2-(1,1-dioxo-1-thiomorpholin-4-yl)-4-methylpyrimidin-5-yl]-N-{[4-methyl-2-(piperidin-1-yl)phenyl](5-methylfuran-2-yl)methyl}acetamide]
14 | < 1000 | < 1000 | 100 to 1000 | Cc1ccc(C(NC(=O)C2(c3ccc(N4CCS(=O)(=O)CC4)cc3)CC2)c2ccccc2N2CCCCC2)o1 (stereo not drawn) [Cpd. 60, 1-[4-(1,1-dioxo-1-thiomorpholin-4-yl)phenyl]-N-[(5-methylfuran-2-yl)[2-(piperidin-1-yl)phenyl]methyl]cyclopropane-1-carboxamide]
15 | < 1000 | < 1000 | < 100 | Cc1ccc(C(NC(=O)C2(c3ccc(N4CCS(=O)(=O)CC4)cc3)CC2)c2ccc(Cl)o2)c(C)c1 (stereo not drawn) [Cpd. 66, N-[(5-chlorofuran-2-yl)(2,4-dimethylphenyl)methyl]-1-[4-(1,1-dioxo-1-thiomorpholin-4-yl)phenyl]cyclopropane-1-carboxamide]
16 | < 1000 | < 1000 | < 100 | Cc1ccc(C(NC(=O)C2(c3cnc(N4CCS(=O)(=O)CC4)nc3)CC2)c2ccc(C)o2)c(C)c1 (stereo not drawn) [Cpd. 48, N-[(2,4-dimethylphenyl)(5-methylfuran-2-yl)methyl]-1-[2-(1,1-dioxo-1-thiomorpholin-4-yl)pyrimidin-5-yl]cyclopropane-1-carboxamide]
17 | 100 to 1000 | < 1000 | 1000 to 10000 | Cc1ccc(C(NC(=O)C2(c3cnc(N4CCS(=O)(=O)CC4)nc3)CC2)c2ccc(C)o2)c(Cl)c1 (stereo not drawn) [Cpd. 52, N-[(2-chloro-4-methylphenyl)(5-methylfuran-2-yl)methyl]-1-[2-(1,1-dioxo-1-thiomorpholin-4-yl)pyrimidin-5-yl]cyclopropane-1-carboxamide]
18 | < 1000 | < 1000 | < 100 | Cc1ccc(C(NC(=O)Cc2ccc(O)c(N3CCS(=O)(=O)CC3)c2)c2ccc(C)o2)c(N2CCCCC2)c1 (stereo not drawn) [Cpd. 39, 2-[3-(1,1-dioxo-1-thiomorpholin-4-yl)-4-hydroxyphenyl]-N-{[4-methyl-2-(piperidin-1-yl)phenyl](5-methylfuran-2-yl)methyl}acetamide]

From patent publication US11077115B2, “Rorgamma modulators and uses thereof” (Genfit, priority 2017, dated 2021)
